Marks after values point to notes of the source that are not given here.
Legend:
[1] = tested on: ICAM-1 expressed on HUVEC; assay: Test about suppression of ICAM-1 expression (enzyme immuno assay, EIA), TNF-α-stimulated HUVEC; type: cell-based; details: Homo sapiens, TNF-α 0.3 ng/ml
Experimental: Using a culture broth containing serum for vascular endothelial cell (manufactured by Nissui Pharmaceutical Co., Ltd.) as a culture medium, HUVEC (umbilical vein endothelial cell manufactured by Morinaga Bioscience Institute) was cultured in a collagen-treated flask by the routine method.
For carrying out a test about the suppression of ICAM-1 expression with HUVEC, a collagen-treated 96-well plate was used, where HUVEC was added at 1 to 2×10^4 cells/well while the culture medium was added at 100 to 200 μl/well. The cell was cultured in 5% CO2 at 37° C. for 48 to 72 hours. Before adding a test solution, the culture medium (80 μl) was exchanged, to which 10 μl of a test solution preliminarily diluted was then added. The plate was allowed to stand alone in a CO2 incubator. 2 hours later, 10 μl of TNF-α (recombinant human TNF-α, manufactured by Genzyme) was added (to a final concentration of 0.3 ng/ml). The resulting plate was again allowed to stand alone in the CO2 incubator. 16 to 22 hours later, the cell was fixed with 1% p-formaldehyde solution. The cell was rinsed with a phosphate buffer containing Ca^2+ and Mg^2+, which was then treated with an anti-human ICAM-1 antibody (mouse IgG1, manufactured by Kyowa Medics) at ambient temperature for 30 minutes. After the cell was rinsed again with the phosphate buffer, the cell was treated with a peroxide-labeled anti-mouse IgG (H+L) (manufactured by Organon Teknik Corp.) for another 30 minutes. After the cell was again rinsed with the phosphate buffer, the color developed was measured, using a peroxidase chromogenic kit (manufactured by Sumitomo Bakelite Co., Ltd.), to determine ICAM-1 expressed on HUVEC as an expression-inhibiting ratio (%) to a non-drug group to calculate the IC50 value.

Solubility in solvents = type: physicochemical; details: methanol, chloroform, acetone, water, hexane
[2] = tested on: footpad thickness, MeHSA-sensitized C57BL/6 mouse; assay: Methylated human serum albumin-induced delayed hypersensitivity test (MeHSA-DTH); type: in vivo; details: oral, twice, footpad thickness 24 hours after induction
Experimental: Methylated human serum albumin (MeHSA) was dissolved in physiological saline to 5 mg/ml, which was then mixed with an equal volume of the complete Freund's adjuvant (manufactured by Iatron), to prepare an emulsion. Next, 100 μl of the prepared emulsion was injected subcutaneously into a 8-week-old male C57BL/6 mouse, for antigen sensitization. Seven days thereafter, MeHSA was dissolved in physiological saline to 1 mg/ml, which was injected at 25 μl subcutaneously into the footpad of the right hind limb, to trigger a reaction. The thickness of the footpad was measured 24 hours after the induction of the reaction, to calculate the difference from the thickness thereof before the induction of the reaction, to make an assessment. Additionally, drugs were orally given twice, namely one hour before the induction of the reaction and 16 hours after the induction thereof.

[3] = tested on: collagen-induced arthritis, DBA/1J mouse; assay: Test using collagen arthritis model in mouse; type: in vivo; details: 30 mg/kg, oral daily after secondary sensitization, two weeks after secondary sensitization, non-drug group 5.7
Experimental: Type II collagen derived from bovine joint was dissolved in 0.1 M acetate saline to 2 mg/ml, with which an equal volume of the complete Freund's adjuvant (manufactured by Iatron) was mixed, to prepare an emulsion. For primary sensitization, the emulsion was injected intracutaneously into the tail root of a 8-week-old male DBA/1J mouse. Twenty-one days thereafter, 0.1 ml of an emulsion prepared in the same manner was intracutaneously injected into the dorsal part of the mouse, for secondary sensitization, to trigger the onset of arthritis. Two weeks after the secondary sensitization, the symptoms of arthritis were visually observed (0: normal; 1: swelling and reddening of finger tips; 2: mild swelling and reddening of parts distal from joints of hands and foots; 3: severe swelling and reddening of parts distal from joints of hands and foots). The symptoms of arthritis were observed individually over the four limbs. The total was defined as the arthritis score of an individual. Further, a test drugs was suspended in 0.5% methyl cellulose and orally given daily after the secondary sensitization.

[4] = tested on: A549 (human lung cancer cell); assay: Test about the suppression of cell growth (MTT); type: cell-based; details: 72 h, A549, 3 days
Experimental: (§1) Various cancer cells and normal cell as cultured in a culture broth to 70 to 90% confluency were used. After the culture broth was removed, 0.25% trypsin/1 mM-EDTA solution was added to scrape off the cells and count the cells. Then, a cell suspension of 5×10^4 cells/ml was prepared. The suspension was divided at 90 μl/well into a 96-well plate, and allowed to stand alone in a CO2 incubator. On the next day, (a 0 to 10 μM test drug (the compound of Example 5) was added at 10 μl/well, for gentle shaking for sufficiently mixing the test drug with the liquid culture. After culturing for 3 days, each 10-μl portion of aqueous 5 mg/ml MTT (3-(4,5-dimethylthiazol-2-yl)-2,5-diphenyltetrazolium bromide) solution was added. After culturing in the CO2 incubator for another 4 hours, 100 μl of a 2-propanol solution containing 0.04N hydrochloric acid was added to each well, for terminating the reaction. The generated MTT formazan was sufficiently dissolved with a multi-channel pipette, to measure the absorbance at 595 nm, using a control wavelength of 655 nm. The measured absorbance was analyzed by non-linear regression analysis using a model formula by the MTT method, to calculate the concentration at which the cell growth was inhibited by 50% (IC50). The cells used at this test and the culture broths therefor are as shown below. • 1) Cell: A549 (human lung cancer cell, Human Science Foundation) • Culture broth: DMEM (Dulbecco's modified Eagle medium)+10% FBS (fetal bovine serum) • 2) Cell: PC-3 (human prostate cancer cell, ATCC) • Culture broth: DMEM+10% FBS • 3) Cell: AsPC-1 (human pancreas cancer cell, Tokyo University) • Culture broth: DMEM+10% FBS • 4) Cell: HT-1080 (human fibrosarcoma cell, ATCC) • Culture broth: DMEM+10% FBS • 5) Cell: Hepatocyte (normal human liver cell, ACRBI) • Culture broth: CS-C (Cell Systems) • 6) Cell: NHDF (normal human fibroblast cell, Kurabo) • Culture broth: DMEM+10% FBS • 7) Cell: BAE (normal bovine aorta vascular endothelial cell, ACRBI) • Culture broth: CS-C (Cell systems)

[5] = tested on: AsPC-1 (human pancreas cancer cell); assay: Test about the suppression of cell growth (MTT); type: cell-based; details: ASPC1, 72 h, AsPC-1, 3 days
Experimental: as §1

[6] = tested on: BAE (normal bovine aorta vascular endothelial cell); assay: Test about the suppression of cell growth (MTT); type: cell-based; details: Bos taurus, 72 h, 3 days
Experimental: as §1

[7] = tested on: HT-1080 (human fibrosarcoma cell); assay: Test about the suppression of cell growth (MTT); type: cell-based; details: 72 h, HT-1080, 3 days
Experimental: as §1

[8] = tested on: Hepatocyte (normal human liver cell); assay: Test about the suppression of cell growth (MTT); type: cell-based; details: 72 h, 3 days
Experimental: as §1

[9] = tested on: NHDF (normal human fibroblast cell); assay: Test about the suppression of cell growth (MTT); type: cell-based; details: 72 h, 3 days
Experimental: as §1

[10] = tested on: PC-3 (human prostate cancer cell); assay: Test about the suppression of cell growth (MTT); type: cell-based; details: 72 h, PC-3, 3 days
Experimental: as §1

| IC50 [4] [nM] | IC50 [5] [nM] | IC50 [7] [nM] | IC50 [10] [nM] | SMILES | IC50 [1] [nM] | Solubility (Solubility in solvents) | Suppression ratio (%) ([2]; 10 mg/kg) | Suppression ratio (%) ([2]; 30 mg/kg) | Arthritis score [3] | IC50 [6] [nM] | IC50 [8] [nM] | IC50 [9] [nM] |
| --- | --- | --- | --- | --- | --- | --- | --- | --- | --- | --- | --- | --- |
| – | – | – | – | C/C(=C\C=C\[C@@H]1[C@H]2[C@H](C)[C@@H](O)[C@H](C)C[C@@H]2C=C[C@@H]1C)C(=O)O [Example 1, (2E,4E)-5-[(1S,2S,4aR,6R,7S,8S,8aS)-7-hydroxy-2,6,8-trimethyl-1,2,4a,5,6,7,8,8a-octahydronaphthalen-1-yl]-2-methylpenta-2,4-dienoic acid] | 59000 | soluble in methanol, chloroform and acetone but insoluble in water and hexane | – | – | – | – | – | – |
| 85 | 113 | 70 | 67 | C/C(=C\C=C\[C@@H]1[C@H]2[C@H](C)[C@@H](O)[C@H](C)C[C@@H]2C=C[C@@H]1C)C(=O)NCc1cccnc1 [Example 5, N-(Pyridin-3-ylmethyl)-(2E,4E)-5-[(1S,2S,4aR,6R,7S,8S,8aS)-7-hydroxy-2,6,8-trimethyl-1,2,4a,5,6,7,8,8a-octahydronaphthalen-1-yl]-2-methylpenta-2,4-dienamide] | 170 | – | 27.5* % | 51.5** % | 2.1* | 9400 | 430 | 600 |
